{
  "source": "patent US9801940B2",
  "about": "“Oral care compositions” (Colgate-Palmolive Company, priority 2010, dated 2017)",
  "data": [
    {"system": "representative oral bacteria S. mutans, F. nucleatum, V. parvula, A. naslundii, P. gingivitis", "assay": "Bactericidal properties in in vitro tests", "type": "cell-based", "excerpt": "As referred to herein, the expressions “extract of magnolia” or “magnolia extract” denote an extract from dried cortex, or bark, of a plant from the Magnoliaceae family, such as Magnolia officinalis, (hereinafter “magnolia”), or a synthetic or semi-synthetic equivalent of such an extract or an active component thereof. […] In other embodiments, the oral composition comprises an extract of magnolia. […] It should be noted that any plant from the Magnoliaceae family is suitable for extracting the active ingredients used in the present embodiment.", "values": [
      {"smiles": "C=CCc1ccc(O)c(-c2ccc(O)c(CC=C)c2)c1", "note": "[honokiol]", "bactericidal properties against representative oral bacteria": "demonstrated bactericidal properties"},
      {"smiles": "C=CCc1ccc(O)c(-c2cc(CC=C)ccc2O)c1", "note": "[magnolol]", "bactericidal properties against representative oral bacteria": "demonstrated bactericidal properties"},
      {"smiles": "CCCc1ccc(O)c(-c2ccc(O)c(CCC)c2)c1", "note": "[tetrahydrohonokiol, 3′,5-dipropylbiphenyl-2,4′-diol]", "bactericidal properties against representative oral bacteria": "demonstrated bactericidal properties"},
      {"smiles": "CCCc1ccc(O)c(-c2cc(CCC)ccc2O)c1", "note": "[tetrahydromagnolol, 5,5′-dipropylbiphenyl-2,2′-diol]", "bactericidal properties against representative oral bacteria": "demonstrated bactericidal properties"}
    ]}
  ]
}
